# Values quoted from earlier work, collected in patent publication US6391843B1, “Chemical linker compositions” (Colgate-Palmolive Co., priority 1996, dated 2002).
# Tested on: insect
# Conditions: hard surface cleaning composition
substance,measurement,value
Methylneodecanamide [MNDA],amount of MNDA necessary to deposit to have one day efficacy,10 micrograms of MNDA per cm2
